These results are taken from patent US10246453B2, “Benzenesulfonamide compounds and their use as therapeutic agents” (Xenon Pharmaceuticals Inc., priority 2016, dated 2019).

pIC50: −log10 of the molar value. Counter-ions that a name gives are not always drawn.

The target in one data set is NaV1.1 (Homo sapiens (Human), UniProt P35498). The data set is described as follows: Sodium Influx Assay (Flux), NaV1.1. The data set is classed as cell-based. Particulars: Trex HEK293 cells, ANG2 dye; arithmetic mean.
A further data set concerns the target NaV1.5 (Homo sapiens (Human), UniProt Q14524). The data set is described as follows: Sodium Influx Assay (Flux), NaV1.5. Particulars: read-out: Flux NaV1.5 IC50; Trex HEK293 cells, ANG2 dye; arithmetic mean.
The target of a further data set is NaV1.6 (Homo sapiens (Human), UniProt Q9UQD0). The data set is described as follows: Sodium Influx Assay (Flux), NaV1.6. Particulars: read-out: Flux NaV1.6 IC50; Trex HEK293 cells, ANG2 dye; arithmetic mean.

NaV1.5, sequence (Q14524 other isoform, or with tags, fused parts or gaps): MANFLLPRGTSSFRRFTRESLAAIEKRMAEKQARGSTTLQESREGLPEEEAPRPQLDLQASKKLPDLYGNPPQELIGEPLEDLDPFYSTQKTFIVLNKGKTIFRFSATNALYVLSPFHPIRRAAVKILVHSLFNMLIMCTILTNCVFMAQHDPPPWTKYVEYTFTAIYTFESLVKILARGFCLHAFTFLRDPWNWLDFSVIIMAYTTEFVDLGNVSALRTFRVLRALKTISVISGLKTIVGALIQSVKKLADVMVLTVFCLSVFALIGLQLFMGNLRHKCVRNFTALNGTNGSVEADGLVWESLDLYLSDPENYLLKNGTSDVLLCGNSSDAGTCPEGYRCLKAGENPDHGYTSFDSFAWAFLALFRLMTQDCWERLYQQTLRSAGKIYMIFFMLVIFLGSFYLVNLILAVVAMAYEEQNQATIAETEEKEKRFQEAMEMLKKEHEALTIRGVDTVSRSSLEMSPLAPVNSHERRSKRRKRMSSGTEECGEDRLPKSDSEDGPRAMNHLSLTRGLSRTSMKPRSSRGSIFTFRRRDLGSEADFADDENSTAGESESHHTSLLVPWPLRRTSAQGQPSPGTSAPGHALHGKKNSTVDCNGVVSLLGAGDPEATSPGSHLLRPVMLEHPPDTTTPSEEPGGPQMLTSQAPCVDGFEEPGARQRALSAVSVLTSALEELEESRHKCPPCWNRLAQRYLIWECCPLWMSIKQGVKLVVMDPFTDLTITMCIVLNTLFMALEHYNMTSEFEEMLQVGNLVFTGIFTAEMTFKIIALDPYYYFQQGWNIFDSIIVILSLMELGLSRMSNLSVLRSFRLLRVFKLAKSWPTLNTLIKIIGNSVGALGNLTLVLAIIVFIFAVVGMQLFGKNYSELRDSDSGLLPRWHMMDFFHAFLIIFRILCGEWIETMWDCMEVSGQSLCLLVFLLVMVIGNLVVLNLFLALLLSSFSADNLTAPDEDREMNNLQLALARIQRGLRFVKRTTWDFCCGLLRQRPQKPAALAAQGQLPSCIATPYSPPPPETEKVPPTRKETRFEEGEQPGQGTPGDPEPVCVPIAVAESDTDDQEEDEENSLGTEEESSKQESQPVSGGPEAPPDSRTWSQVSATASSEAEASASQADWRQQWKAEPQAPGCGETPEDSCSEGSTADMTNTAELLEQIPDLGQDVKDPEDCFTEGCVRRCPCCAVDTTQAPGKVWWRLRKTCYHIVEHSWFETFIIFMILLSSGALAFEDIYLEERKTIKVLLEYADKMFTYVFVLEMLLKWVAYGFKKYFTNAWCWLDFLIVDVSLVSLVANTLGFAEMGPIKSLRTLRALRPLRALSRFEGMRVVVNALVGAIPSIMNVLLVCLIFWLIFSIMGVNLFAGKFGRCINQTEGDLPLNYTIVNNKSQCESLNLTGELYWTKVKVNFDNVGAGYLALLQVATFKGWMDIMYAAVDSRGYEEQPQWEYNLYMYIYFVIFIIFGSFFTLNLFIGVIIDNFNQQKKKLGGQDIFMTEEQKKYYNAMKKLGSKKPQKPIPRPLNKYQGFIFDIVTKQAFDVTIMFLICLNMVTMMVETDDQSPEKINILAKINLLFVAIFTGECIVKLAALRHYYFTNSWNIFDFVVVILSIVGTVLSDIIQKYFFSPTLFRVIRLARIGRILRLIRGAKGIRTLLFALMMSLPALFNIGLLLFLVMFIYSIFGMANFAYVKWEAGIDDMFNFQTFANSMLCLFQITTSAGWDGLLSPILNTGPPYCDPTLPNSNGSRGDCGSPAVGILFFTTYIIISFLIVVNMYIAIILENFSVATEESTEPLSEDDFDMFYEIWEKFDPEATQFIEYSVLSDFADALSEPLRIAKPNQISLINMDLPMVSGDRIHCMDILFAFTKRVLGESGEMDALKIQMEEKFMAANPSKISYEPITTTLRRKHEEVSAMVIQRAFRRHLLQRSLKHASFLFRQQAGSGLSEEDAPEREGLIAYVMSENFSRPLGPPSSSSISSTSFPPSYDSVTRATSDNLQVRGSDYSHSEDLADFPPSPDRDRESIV

With `Cc1cc(C)cc(CN2CCC(Oc3ccc(S(=O)(=O)Nc4ncns4)cc3Cl)C(C)(C)C2)c1` (stereo not drawn) [Example 3, 3-chloro-4-((1-(3,5-dimethylbenzyl)-3,3-dimethylpiperidin-4-yl)oxy)-N-(1,2,4-thiadiazol-5-yl)benzenesulfonamide 2,2,2-trifluoroacetate], the pIC50 is 4.68 at NaV1.1, 5.21 at NaV1.5 and 5.18 on NaV1.6.
The like results for `Cc1cc(S(=O)(=O)Nc2cscn2)c(F)cc1OC1CCN(Cc2ccccc2)CC1` [Example 239, 4-((1-benzylpiperidin-4-yl)oxy)-2-fluoro-5-methyl-N-(thiazol-4-yl)benzenesulfonamide] were, in that order, 4.57, 4.78 and 6.15.
Consider `CC1(C)CNCCC1Oc1ccc(S(=O)(=O)Nc2ncns2)cc1Cl` (stereo not drawn) [Example 1, 3-chloro-4-((3,3-dimethylpiperidin-4-yl)oxy)-N-(1,2,4-thiadiazol-5-yl)benzenesulfonamide 2,2,2-trifluoroacetate], for which the pIC50 against NaV1.1 was less than 4.52; on NaV1.5, less than 4.52; at NaV1.6, 4.99.
Take `Cc1cc(S(=O)(=O)Nc2cscn2)c(F)cc1N(C)[C@H]1CCN(C2Cc3ccccc3C2)C1` [Example 149, (S)-4-((1-(2,3-dihydro-1H-inden-2-yl)pyrrolidin-3-yl)(methyl)amino)-2-fluoro-5-methyl-N-(thiazol-4-yl)benzenesulfonamide]: the pIC50 at NaV1.1 is 5.22; at NaV1.5, 5.04; at NaV1.6, 6.21.
The like results for `CN(c1cc(F)c(S(=O)(=O)Nc2cscn2)cc1Cl)[C@H]1CCN(Cc2ccc(Cl)cc2)C1` [Example 188, (S)-5-chloro-4-((1-(4-chlorobenzyl)-pyrrolidin-3-yl)(methyl)amino)-2-fluoro-N-(thiazol-4-yl)benzene-sulfonamide] were, in that order, 5.49, 5.08 and 5.38.
For `CN(c1ccc(S(=O)(=O)Nc2ncns2)cc1Cl)[C@H]1CCN(Cc2cccc(Cl)c2)C1` [Example 30, (S)-3-chloro-4-((1-(3-chlorobenzyl)pyrrolidin-3-yl)(methyl)amino)-N-(1,2,4-thiadiazol-5-yl)benzenesulfonamide], in that order: 5.10, 4.73 and 7.68.
For `CN(c1cc(F)c(S(=O)(=O)Nc2cscn2)cc1C(F)F)[C@H]1CCN(Cc2ccccc2)C1` [Example 270, (S)-4-((1-benzylpyrrolidin-3-yl)(methyl)amino)-5-(difluoromethyl)-2-fluoro-N-(thiazol-4-yl)benzenesulfonamide formate], in that order: 4.66, 4.54 and 5.32.
With `Cc1cc(S(=O)(=O)Nc2cscn2)c(F)cc1N(C)[C@H]1CCN(Cc2ccn(C)n2)C1` [Example 111, (S)-2-fluoro-5-methyl-4-(methyl(1-((1-methyl-1H-pyrazol-3-yl)methyl)pyrrolidin-3-yl)amino)-N-(thiazol-4-yl)benzenesulfonamide formate], the negative-log IC50 (pIC50) was less than 4.52 at NaV1.1, less than 4.52 on NaV1.5 and 6.12 on NaV1.6.
Regarding `Cc1c(OC2CCN(Cc3ccccc3)CC2)cc(F)c(S(=O)(=O)Nc2nccs2)c1F` [Example 223, 4-((1-benzylpiperidin-4-yl)oxy)-2,6-difluoro-3-methyl-N-(thiazol-2-yl)benzenesulfonamide 2,2,2-trifluoroacetate], the results for the pIC50 against NaV1.1, at NaV1.5 and on NaV1.6 were 5.59, 4.63 and 8.05, respectively.
For `CN(c1cc(F)c(S(=O)(=O)Nc2cscn2)cc1Cl)[C@H]1CCN(Cc2cc(F)ccc2F)C1` [Example 207, (S)-5-chloro-4-((1-(2,5-difluorobenzyl)pyrrolidin-3-yl)(methyl)amino)-2-fluoro-N-(thiazol-4-yl)benzenesulfonamide], in that order: 5.14, 5.13 and 5.86.
Consider `CN(c1ccc(S(=O)(=O)Nc2ncns2)cc1Cl)[C@H]1CCN(Cc2ccccc2Cl)C1` [Example 252, (S)-3-chloro-4-((1-(2-chlorobenzyl)pyrrolidin-3-yl)(methyl)amino)-N-(1,2,4-thiadiazol-5-yl)benzenesulfonamide 2,2,2-trifluoroacetate], for which the negative logarithm of the IC50 (pIC50) against NaV1.1 was 4.77; on NaV1.5 it was 5.09; on NaV1.6, 6.52.
Take `O=S(=O)(Nc1cscn1)c1cc(Cl)c(N[C@@H]2CCN(Cc3ccccc3)C2)cc1F` [Example 261, (R)-4-((1-benzylpyrrolidin-3-yl)amino)-5-chloro-2-fluoro-N-(thiazol-4-yl)benzenesulfonamide]: the pIC50 was 5.08 against NaV1.1, 4.61 on NaV1.5 and 5.22 on NaV1.6.
For the compound `Cc1cc(S(=O)(=O)Nc2cscn2)c(F)cc1N(C)[C@H]1CCN(Cc2nc(C(F)(F)F)cs2)C1` [Example 152, (S)-2-fluoro-5-methyl-4-(methyl(1-((4-(trifluoromethyl)thiazol-2-yl)methyl)pyrrolidin-3-yl)amino)-N-(thiazol-4-yl)benzenesulfonamide], the pIC50 at NaV1.1 was 5.14; on NaV1.5, 5.05; on NaV1.6 it was 5.77.
For `CN(c1cc(F)c(S(=O)(=O)Nc2cscn2)cc1Cl)[C@H]1CCN(Cc2cc(Cl)ccc2Cl)C1` [Example 197, (S)-5-chloro-4-((1-(2,5-dichlorobenzyl)pyrrolidin-3-yl)(methyl)amino)-2-fluoro-N-(thiazol-4-yl)benzenesulfonamide], in that order: 5.28, 5.50 and 5.48.
`CCCc1ccc(CN2CC[C@H](N(C)c3cc(F)c(S(=O)(=O)Nc4cscn4)cc3Cl)C2)cc1` [Example 171, (S)-5-chloro-2-fluoro-4-(methyl(1-(4-propylbenzyl)-pyrrolidin-3-yl)amino)-N-(thiazol-4-yl)benzene-sulfonamide]: the pIC50 against NaV1.1 was 5.63; at NaV1.5, 5.30; on NaV1.6 it was 5.73.
With `O=S(=O)(Nc1nccs1)c1ccc(OC2CCN(Cc3ccc(F)cc3)CC2)c(Cl)c1` [Example 22, 3-chloro-4-((1-(4-fluorobenzyl)piperidin-4-yl)oxy)-N-(thiazol-2-yl)benzenesulfonamide 2,2,2-trifluoroacetate], the pIC50 against NaV1.1 was 4.83; at NaV1.5, 4.79; on NaV1.6, 5.44.
For `C[C@@H](c1ccccc1)N1CC[C@H](N(C)c2ccc(S(=O)(=O)Nc3nccs3)cc2Cl)C1` [Example 42, 3-chloro-4-(methyl((S)-1-((S)-1-phenylethyl)pyrrolidin-3-yl)amino)-N-(thiazol-2-yl)benzenesulfonamide], in that order: 5.36, 5.04 and 6.81.
Turning to `Cc1cc(S(=O)(=O)Nc2cscn2)c(F)cc1N(C)[C@H]1CCN(Cc2cocn2)C1` [Example 143, (S)-2-fluoro-5-methyl-4-(methyl(1-(oxazol-4-ylmethyl)pyrrolidin-3-yl)amino)-N-(thiazol-4-yl)benzenesulfonamide], the pIC50 against NaV1.1 was less than 4.52; on NaV1.5, less than 4.52; at NaV1.6, 4.99.
Turning to `C[C@H]1C[C@@H](Oc2ccc(S(=O)(=O)Nc3nccs3)cc2Cl)CCN1Cc1ccccc1` (relative stereo) [Example 72, 4-((cis-1-benzyl-2-methylpiperidin-4-yl)oxy)-3-chloro-N-(thiazol-2-yl)benzenesulfonamide], the results for the pIC50 on NaV1.1, on NaV1.5 and on NaV1.6 were 5.17, 4.87 and 5.22, respectively.
As for `Cc1cc(S(=O)(=O)Nc2cscn2)c(F)cc1N(C)[C@H]1CCN(Cc2ccnn2CC(F)(F)F)C1` [Example 108, (S)-2-fluoro-5-methyl-4-(methyl(1-((1-(2,2,2-trifluoroethyl)-1H-pyrazol-5-yl)methyl)pyrrolidin-3-yl)amino)-N-(thiazol-4-yl)benzenesulfonamide], the pIC50 was 4.90 on NaV1.1, less than 4.52 on NaV1.5 and 5.26 at NaV1.6.
For `Cc1cc(S(=O)(=O)Nc2cscn2)c(F)cc1N(C)[C@H]1CCN(Cc2csc(-c3ccccc3)n2)C1` [Example 135, (S)-2-fluoro-5-methyl-4-(methyl(1-((2-phenylthiazol-4-yl)methyl)pyrrolidin-3-yl)amino)-N-(thiazol-4-yl)benzenesulfonamide], in that order: 6.25, 5.78 and 6.19.
The like results for `O=S(=O)(Nc1nccs1)c1ccc(OC2CCN(Cc3ccccc3F)CC2)c(Cl)c1` [Example 90, 3-chloro-4-(1-(2-fluorobenzyl)piperidin-4-yloxy)-N-(thiazol-2-yl)benzenesulfonamide] were, in that order, 4.91, 5.09 and 6.33.
The like results for `COc1cccc(CN2CC[C@H](N(C)c3cc(F)c(S(=O)(=O)Nc4cscn4)cc3Cl)C2)n1` [Example 194, (S)-5-chloro-2-fluoro-4-((1-((6-methoxypyridin-2-yl)methyl)pyrrolidin-3-yl)(methyl)amino)-N-(thiazol-4-yl)benzene-sulfonamide] were, in that order, 4.53, 4.63 and 5.50.
As to `Cc1cc(S(=O)(=O)Nc2cscn2)c(F)cc1N(C)[C@H]1CCN(Cc2cccc(F)c2F)C1` [compound 156, (S)-4-((1-(2,3-difluorobenzyl)pyrrolidin-3-yl)(methyl)amino)-2-fluoro-5-methyl-N-(thiazol-4-yl)benzenesulfonamide], the pIC50 at NaV1.1 is 5.11; on NaV1.5 it was 4.99; at NaV1.6 it was 6.53.
